From PMC8131206 (Nature biomedical engineering, 2021)
Where no end group is shown, it is not given here.

What was measured:
[1] = test system: Mtb; assay type: cell-based, Mycobacterium tuberculosis
[2] = test system: H. influenzae TD-4; details: TD-4, 24 h
[3] = test system: M. smegmatis Mc^2 155; details: Mc^2 155, 48 h
[4] = test system: M. tuberculosis H37Rv (virulent); details: 96 h
[5] = test system: S. aureus (MR) USA300; details: USA300, 24 h
[6] = test system: S. aureus (MS) NRS72; details: MS) NRS72, 24 h
[7] = biological target: the molecule itself; test: negative-stain TEM + circular dichroism

With COc1c(N2C[C@@H]3CCCN[C@@H]3C2)c(F)cc2c(=O)c(C(=O)O)cn(C3CC3)c12 [moxifloxacin] the “Combinatorial effect with MAD1 (FIC)” value [1] was “synergizes”.

KRWHWWRRHWVVW-NH2 [MAD1] was tested, and the MIC [2] was 80 (20) µM, the MIC [3] was 5(5) µM and the MIC [4] was 5 µM. The MIC [5] was >80 (20) µM and the MIC [6] was >80 (20) µM.

KRWHWWRRHWVVW-NH2 [myco-membrane associated disruption 1 (MAD1) peptide]: binds [7].
